This is an account of results in the supplement of paper PMC11962398.

Compound in assay [1]: T1, C[C@H]1CNCCN1c1nccc(-c2noc3c2CCC[C@@]32CCCc3sc(N)c(C#N)c32)n1 [BI-2493]
As to conditions: 5 days. As to the method: (§1)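 PRISM pooled barcoded cancer cell line viability screen (Broad Institute) with BI-2493 at 8 doses in threefold dilutions from 0.00457 to 10 µmol/L, 5-day treatment; curves fitted per cell line. IC50 is undefined (placeholder) for resistant lines. AUC is capped at 1, and sensitivity is reported as 1 − AUC.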

Compound in assay [2]: T1, BI-2493
Put plainly: 1 - AUC of viability dose-response curve (sensitivity) (fraction); higher = more sensitive. As to conditions: 5 days. Here is the method:
as §1

SW626_LARGE_INTESTINE: the “IC50 of cell viability” value with BI-2493 [1] was found to be 4.08 µM. For the same test system, the “1 - AUC of viability dose-response curve” value in the assay with BI-2493 [2] is 0.124.
On to SW756_CERVIX, for which the “IC50 of cell viability” value with BI-2493 [1] was determined as 5.46 µM. Also, the “1 - AUC of viability dose-response curve” value with BI-2493 [2] was 0.14.
On the same counts, the results for SW780_URINARY_TRACT are 3.46 µM and 0.22.
As to SW837_LARGE_INTESTINE, the “IC50 of cell viability” value with BI-2493 [1] is 5.95 µM. In the assay with BI-2493 [2], the “1 - AUC of viability dose-response curve” value was 0.0901.
As to SW900_LUNG, the “IC50 of cell viability” value with BI-2493 [1] is 8.99 µM. For the same test system, the “1 - AUC of viability dose-response curve” value with BI-2493 [2] was determined as 0.115.
In the case of SW948_LARGE_INTESTINE, the “IC50 of cell viability” value with BI-2493 [1] was 7.49 µM. Besides, the “1 - AUC of viability dose-response curve” value with BI-2493 [2] worked out at 0.167.
On the same counts, the results for SW954_CERVIX are 3.72 µM and 0.117.
With SW1088_CENTRAL_NERVOUS_SYSTEM, in the assay with BI-2493 [1], the “IC50 of cell viability” value was determined as 8.8 µM. Besides, the “1 - AUC of viability dose-response curve” value in the assay with BI-2493 [2] came to 0.159.
Regarding SW1116_LARGE_INTESTINE, the “IC50 of cell viability” value in the assay with BI-2493 [1] was 2.37 µM. The “1 - AUC of viability dose-response curve” value with BI-2493 [2] stood at 0.214.
Regarding SW1353_BONE, the “IC50 of cell viability” value with BI-2493 [1] is > 10 µM. Further, the “1 - AUC of viability dose-response curve” value in the assay with BI-2493 [2] came to 0.032.
Turning to SW1463_LARGE_INTESTINE, the “IC50 of cell viability” value with BI-2493 [1] amounted to 4.74 µM. Further, the “1 - AUC of viability dose-response curve” value with BI-2493 [2] amounted to 0.177.
On the same counts, the results for SW1573_LUNG are 7.72 µM and 0.108.
On the same counts, the results for SW1710_URINARY_TRACT are 7.21 µM and 0.0685.
On the same counts, the results for SW1783_CENTRAL_NERVOUS_SYSTEM are 7.49 µM and 0.0474.
SW1990_PANCREAS: in the assay with BI-2493 [1], the “IC50 of cell viability” value turned out to be 0.926 µM. Also, the “1 - AUC of viability dose-response curve” value in the assay with BI-2493 [2] worked out at 0.324.
On the same counts, the results for T3M5_THYROID are 4.56 µM and 0.162.
Regarding T3M10_LUNG, the “IC50 of cell viability” value in the assay with BI-2493 [1] came out at 5.96 µM. Further, the “1 - AUC of viability dose-response curve” value with BI-2493 [2] was determined as 0.0884.
T24_URINARY_TRACT: the “IC50 of cell viability” value with BI-2493 [1] is > 10 µM. Further, the “1 - AUC of viability dose-response curve” value in the assay with BI-2493 [2] was 0.047.
On the same counts, the results for T47D_BREAST are 4.07 µM and 0.0937.
Turning to “TALL1_HAEMATOPOIETIC_AND_LYMPHOID_TISSUE”, the “IC50 of cell viability” value in the assay with BI-2493 [1] came to 6.69 µM. Besides, the “1 - AUC of viability dose-response curve” value with BI-2493 [2] stood at 0.0755.
Turning to “TANOUE_HAEMATOPOIETIC_AND_LYMPHOID_TISSUE”, the “IC50 of cell viability” value with BI-2493 [1] is 9.36 µM. Further, the “1 - AUC of viability dose-response curve” value in the assay with BI-2493 [2] is 0.0128.
For TASK1_CENTRAL_NERVOUS_SYSTEM, the “IC50 of cell viability” value in the assay with BI-2493 [1] is 7.76 µM. Besides, in the assay with BI-2493 [2], the “1 - AUC of viability dose-response curve” value stood at 0.0438.
Consider TC32_BONE, for which the “IC50 of cell viability” value with BI-2493 [1] was determined as 8.86 µM. In addition, in the assay with BI-2493 [2], the “1 - AUC of viability dose-response curve” value turned out to be 0.0484.
Turning to TC71_BONE, the “IC50 of cell viability” value with BI-2493 [1] amounted to 9.44 µM. In the assay with BI-2493 [2], the “1 - AUC of viability dose-response curve” value is 0.0115.
On the same counts, the results for TC106_BONE are 5.11 µM and 0.108.
On the same counts, the results for TC205_BONE are > 10 µM and 0.082.
On the same counts, the results for TCCPAN2_PANCREAS are 8.86 µM and 0.0795.
For the test system TCCSUP_URINARY_TRACT, the “IC50 of cell viability” value in the assay with BI-2493 [1] worked out at 9.48 µM. Further, in the assay with BI-2493 [2], the “1 - AUC of viability dose-response curve” value stood at 0.0247.
On the same counts, the results for TE1_OESOPHAGUS are 9.58 µM and 0.0344.
On to TE4_OESOPHAGUS, for which the “IC50 of cell viability” value with BI-2493 [1] worked out at 4.83 µM. Moreover, the “1 - AUC of viability dose-response curve” value with BI-2493 [2] stood at 0.0912.
On the same counts, the results for TE5_OESOPHAGUS are 9.08 µM and 0.0423.
Consider TE6_OESOPHAGUS, for which the “IC50 of cell viability” value with BI-2493 [1] is 4.43 µM. Further, the “1 - AUC of viability dose-response curve” value with BI-2493 [2] is 0.0969.
On the same counts, the results for TE8_OESOPHAGUS are > 10 µM and 0.0526.
On the same counts, the results for TE9_OESOPHAGUS are 5.83 µM and 0.107.
Regarding TE10_OESOPHAGUS, the “IC50 of cell viability” value with BI-2493 [1] is > 10 µM. In addition, the “1 - AUC of viability dose-response curve” value in the assay with BI-2493 [2] was found to be 0.146.
On the same counts, the results for TE11_OESOPHAGUS are 4.31 µM and 0.102.
Take TE14_OESOPHAGUS: the “IC50 of cell viability” value with BI-2493 [1] is 9.66 µM. Also, the “1 - AUC of viability dose-response curve” value with BI-2493 [2] worked out at 0.00721.
With TE15_OESOPHAGUS, in the assay with BI-2493 [1], the “IC50 of cell viability” value was found to be 0.153 µM. The “1 - AUC of viability dose-response curve” value in the assay with BI-2493 [2] stood at 0.381.
On the same counts, the results for TE617T_SOFT_TISSUE are 3.75 µM and 0.193.
On the same counts, the results for TEN_ENDOMETRIUM are 9.58 µM and 0.00891.
On to TF1_HAEMATOPOIETIC_AND_LYMPHOID_TISSUE, for which the “IC50 of cell viability” value with BI-2493 [1] was 0.352 µM. The “1 - AUC of viability dose-response curve” value with BI-2493 [2] was determined as 0.427.
For the test system TFK1_BILIARY_TRACT, the “IC50 of cell viability” value in the assay with BI-2493 [1] was 2.89 µM. The “1 - AUC of viability dose-response curve” value with BI-2493 [2] amounted to 0.173.
On the same counts, the results for TGBC1TKB_BILIARY_TRACT are 7.28 µM and 0.0559.
On the same counts, the results for TGBC18TKB_LARGE_INTESTINE are 9.22 µM and 0.103.
For TGBC52TKB_BILIARY_TRACT, the “IC50 of cell viability” value with BI-2493 [1] is 1.47 µM. The “1 - AUC of viability dose-response curve” value in the assay with BI-2493 [2] worked out at 0.255.
On the same counts, the results for TGW_AUTONOMIC_GANGLIA are 4.67 µM and 0.123.
On the same counts, the results for TM31_CENTRAL_NERVOUS_SYSTEM are 8.57 µM and 0.0846.
Take TM87_SOFT_TISSUE: the “IC50 of cell viability” value with BI-2493 [1] is 5.06 µM. For the same test system, the “1 - AUC of viability dose-response curve” value with BI-2493 [2] was 0.26.
On the same counts, the results for TOV21G_OVARY are 5.42 µM and 0.114.
For the test system TT1TKB_LARGE_INTESTINE, the “IC50 of cell viability” value with BI-2493 [1] is 1.08 µM. In the assay with BI-2493 [2], the “1 - AUC of viability dose-response curve” value stood at 0.312.
Consider TT2609C02_THYROID, for which the “IC50 of cell viability” value with BI-2493 [1] was > 10 µM. For the same test system, the “1 - AUC of viability dose-response curve” value with BI-2493 [2] was 0.00366.
For TTC442_SOFT_TISSUE, the “IC50 of cell viability” value in the assay with BI-2493 [1] was found to be 5.84 µM. Also, the “1 - AUC of viability dose-response curve” value in the assay with BI-2493 [2] was found to be 0.0621.
On the same counts, the results for TTC549_SOFT_TISSUE are 5.34 µM and 0.113.
As to TTC642_SOFT_TISSUE, the “IC50 of cell viability” value with BI-2493 [1] amounted to 7.08 µM. Further, the “1 - AUC of viability dose-response curve” value with BI-2493 [2] came out at 0.0875.
On the same counts, the results for TTC709_SOFT_TISSUE are 4.96 µM and 0.16.
Take TT_OESOPHAGUS: the “IC50 of cell viability” value with BI-2493 [1] is 5.9 µM. Also, the “1 - AUC of viability dose-response curve” value in the assay with BI-2493 [2] is 0.191.
On the same counts, the results for TT_THYROID are 6.45 µM and 0.0835.
On the same counts, the results for TUHR4TKB_KIDNEY are 3.62 µM and 0.123.
On the same counts, the results for TYKNU_OVARY are 9.48 µM and 0.0105.
Regarding U2OS_BONE, in the assay with BI-2493 [1], the “IC50 of cell viability” value was > 10 µM. In the assay with BI-2493 [2], the “1 - AUC of viability dose-response curve” value is 0.215.
Turning to U87MG_CENTRAL_NERVOUS_SYSTEM, the “IC50 of cell viability” value with BI-2493 [1] was > 10 µM. In addition, the “1 - AUC of viability dose-response curve” value in the assay with BI-2493 [2] worked out at 0.111.
With U118MG_CENTRAL_NERVOUS_SYSTEM, the “IC50 of cell viability” value in the assay with BI-2493 [1] is 6.46 µM. Further, the “1 - AUC of viability dose-response curve” value with BI-2493 [2] was found to be 0.0721.
On the same counts, the results for U178_CENTRAL_NERVOUS_SYSTEM are 7.8 µM and 0.139.
On the same counts, the results for “U266B1_HAEMATOPOIETIC_AND_LYMPHOID_TISSUE” are 7.47 µM and 0.0732.
For U343_CENTRAL_NERVOUS_SYSTEM, the “IC50 of cell viability” value with BI-2493 [1] worked out at 6.54 µM. In addition, in the assay with BI-2493 [2], the “1 - AUC of viability dose-response curve” value is 0.0705.
Take U937_HAEMATOPOIETIC_AND_LYMPHOID_TISSUE: the “IC50 of cell viability” value with BI-2493 [1] is 3.77 µM. For the same test system, in the assay with BI-2493 [2], the “1 - AUC of viability dose-response curve” value was found to be 0.17.
On the same counts, the results for “U2904_HAEMATOPOIETIC_AND_LYMPHOID_TISSUE” are 9.63 µM and 0.0108.
Consider “U2973_HAEMATOPOIETIC_AND_LYMPHOID_TISSUE”, for which the “IC50 of cell viability” value with BI-2493 [1] amounted to 0.921 µM. The “1 - AUC of viability dose-response curve” value with BI-2493 [2] came out at 0.33.
On the same counts, the results for UACC62_SKIN are 9.21 µM and 0.0436.
Take UACC257_SKIN: the “IC50 of cell viability” value with BI-2493 [1] amounted to 7.78 µM. For the same test system, in the assay with BI-2493 [2], the “1 - AUC of viability dose-response curve” value amounted to 0.0407.
As to UBLC1_URINARY_TRACT, in the assay with BI-2493 [1], the “IC50 of cell viability” value is 4.3 µM. In addition, the “1 - AUC of viability dose-response curve” value with BI-2493 [2] turned out to be 0.137.
As to UMRC3_KIDNEY, the “IC50 of cell viability” value with BI-2493 [1] is 4.74 µM. In the assay with BI-2493 [2], the “1 - AUC of viability dose-response curve” value was found to be 0.106.
On the same counts, the results for UMRC7_KIDNEY are 6.09 µM and 0.0724.
On the same counts, the results for UMUC1_URINARY_TRACT are 2.29 µM and 0.226.
On the same counts, the results for UMUC5_URINARY_TRACT are 7.6 µM and 0.0622.
